Each compound was assayed on HBV (assay: HBV inhibition assay in HepAD38 cells (extracellular HBV DNA by direct qPCR)). Details: Hepatitis B virus, 96 hours, 8-point dose-response curve, read-out: HBV inh EC50.
Type: cell-based, Hepatitis B virus
In the case of `Cc1nnc(C(=O)N2C[C@H]3COc4c(cn(C)c4C(=O)Nc4cc(F)c(F)c(F)c4)S(=O)(=O)N[C@H]3C2)o1` [Example E97, (3aR,10aR)-7-methyl-2-(5-methyl-1,3,4-oxadiazole-2-carbonyl)-N-(3,4,5-trifluorophenyl)-2,3,3a,4,10,10a-hexahydro-1H,7H-dipyrrolo[3,4-b:3′,4′-f][1,4,5]oxathiazocine-8-carboxamide 5,5-dioxide], the EC50 is reported as < 1000 nM.
`Cc1nnc(C(=O)N2C[C@H]3COc4c(cn(C)c4C(=O)Nc4ccc(F)c(C)c4)S(=O)(=O)N[C@H]3C2)o1` [Example E98, (3aR,10aR)—N-(4-fluoro-3-methylphenyl)-7-methyl-2-(5-methyl-1,3,4-oxadiazole-2-carbonyl)-2,3,3a,4,10,10a-hexahydro-1H,7H-dipyrrolo[3,4-b:3′,4′-f][1,4,5]oxathiazocine-8-carboxamide 5,5-dioxide] was tested, and the EC50 was < 1000 nM.
With `Cc1nnc(C(=O)N2C[C@H]3COc4c(cn(C)c4C(=O)Nc4ccc(F)c(Cl)c4)S(=O)(=O)N[C@H]3C2)o1` [Example E99, (3aR,10aR)—N-(3-chloro-4-fluorophenyl)-7-methyl-2-(5-methyl-1,3,4-oxadiazole-2-carbonyl)-2,3,3a,4,10,10a-hexahydro-1H,7H-dipyrrolo[3,4-b:3′,4′-f][1,4,5]oxathiazocine-8-carboxamide 5,5-dioxide] the EC50 was < 1000 nM.
With `Cc1cc(NC(=O)c2c3c(cn2C)S(=O)(=O)N[C@H]2CN(C(=O)[C@H]4CCCO4)C[C@H]2CO3)ccc1F` [Example E100, (3aR,10aR)—N-(4-fluoro-3-methylphenyl)-7-methyl-2-((R)-tetrahydrofuran-2-carbonyl)-2,3,3a,4,10,10a-hexahydro-1H,7H-dipyrrolo[3,4-b:3′,4′-f][1,4,5]oxathiazocine-8-carboxamide 5,5-dioxide] the EC50 was < 1000 nM.
In the case of `Cc1cc(NC(=O)c2c3c(cn2C)S(=O)(=O)N[C@H]2CN(C(=O)[C@@H]4CCCO4)C[C@H]2CO3)ccc1F` [Example E101, (3aR,10aR)—N-(4-fluoro-3-methylphenyl)-7-methyl-2-((S)-tetrahydrofuran-2-carbonyl)-2,3,3a,4,10,10a-hexahydro-1H,7H-dipyrrolo[3,4-b:3′,4′-f][1,4,5]oxathiazocine-8-carboxamide 5,5-dioxide], the EC50 is reported as < 1000 nM.
In the case of `Cn1cc2c(c1C(=O)Nc1cc(F)c(F)c(F)c1)OC[C@@H]1CN(C(=O)c3nnc(N)o3)C[C@@H]1NS2(=O)=O` [Example E102, (3aR,10aR)-2-(5-amino-1,3,4-oxadiazole-2-carbonyl)-7-methyl-N-(3,4,5-trifluorophenyl)-2,3,3a,4,10,10a-hexahydro-1H,7H-dipyrrolo[3,4-b:3′,4′-f][1,4,5]oxathiazocine-8-carboxamide 5,5-dioxide], the EC50 is reported as < 1000 nM.
For `Cc1noc(C(=O)N2C[C@H]3COc4c(cn(C)c4C(=O)Nc4ccc(F)c(C)c4)S(=O)(=O)N[C@H]3C2)n1` [Example E103, (3aR,10aR)—N-(4-fluoro-3-methylphenyl)-7-methyl-2-(3-methyl-1,2,4-oxadiazole-5-carbonyl)-2,3,3a,4,10,10a-hexahydro-1H,7H-dipyrrolo[3,4-b:3′,4′-f][1,4,5]oxathiazocine-8-carboxamide 5,5-dioxide], the EC50 was < 1000 nM.
With `Cc1cc(NC(=O)c2c3c(cn2C)S(=O)(=O)N[C@H]2CN(C(=O)c4cocn4)C[C@H]2CO3)ccc1F` [Example E104, (3aR,10aR)—N-(4-fluoro-3-methylphenyl)-7-methyl-2-(oxazole-4-carbonyl)-2,3,3a,4,10,10a-hexahydro-1H,7H-dipyrrolo[3,4-b:3′,4′-f][1,4,5]oxathiazocine-8-carboxamide 5,5-dioxide] the EC50 was < 1000 nM.
For `Cc1cc(NC(=O)c2c3c(cn2C)S(=O)(=O)N[C@H]2CN(C(=O)c4cnon4)C[C@H]2CO3)ccc1F` [Example E105, (3aR,10aR)—N-(4-fluoro-3-methylphenyl)-7-methyl-2-(1,2,5-oxadiazole-3-carbonyl)-2,3,3a,4,10,10a-hexahydro-1H,7H-dipyrrolo[3,4-b:3′,4′-f][1,4,5]oxathiazocine-8-carboxamide 5,5-dioxide], the EC50 was < 1000 nM.
`Cn1cc2c(c1C(=O)Nc1cc(F)c(F)c(F)c1)OC[C@@H]1CN(C(=O)c3cocn3)C[C@@H]1NS2(=O)=O` [Example E106, (3aR,10aR)-7-methyl-2-(oxazole-4-carbonyl)-N-(3,4,5-trifluorophenyl)-2,3,3a,4,10,10a-hexahydro-1H,7H-dipyrrolo[3,4-b:3′,4′-f][1,4,5]oxathiazocine-8-carboxamide 5,5-dioxide] was tested, and the EC50 was < 1000 nM.
For `Cc1nnc(C(=O)N2C[C@H]3COc4c(cn(C)c4C(=O)Nc4ccc(F)c(C)c4)S(=O)(=O)N[C@H]3C2)s1` [Example E107, (3aR,10aR)—N-(4-fluoro-3-methylphenyl)-7-methyl-2-(5-methyl-1,3,4-thiadiazole-2-carbonyl)-2,3,3a,4,10,10a-hexahydro-1H,7H-dipyrrolo[3,4-b:3′,4′-f][1,4,5]oxathiazocine-8-carboxamide 5,5-dioxide], the EC50 was < 1000 nM.
For `Cc1cc(NC(=O)c2c3c(cn2C)S(=O)(=O)N[C@H]2CN(C(=O)C4COC4)C[C@H]2CO3)ccc1F` [Example E108, (3aR,10aR)—N-(4-fluoro-3-methylphenyl)-7-methyl-2-(oxetane-3-carbonyl)-2,3,3a,4,10,10a-hexahydro-1H,7H-dipyrrolo[3,4-b:3′,4′-f][1,4,5]oxathiazocine-8-carboxamide 5,5-dioxide], the EC50 was < 1000 nM.
In the case of `Cc1cc(NC(=O)c2c3c(cn2C)S(=O)(=O)N[C@H]2CN(C(=O)C45CC(CO4)C5)C[C@H]2CO3)ccc1F` [Example E109, (3aR,10aR)-2-(2-oxabicyclo[2.1.1]hexane-1-carbonyl)-N-(4-fluoro-3-methylphenyl)-7-methyl-2,3,3a,4,10,10a-hexahydro-1H,7H-dipyrrolo[3,4-b:3′,4′-f][1,4,5]oxathiazocine-8-carboxamide 5,5-dioxide], the EC50 is reported as < 1000 nM.
In the case of `Cc1cc(NC(=O)c2c3c(cn2C)S(=O)(=O)N[C@H]2CN(C(=O)C4CCO4)C[C@H]2CO3)ccc1F` (stereo partly drawn) [Example E110, (3aR,10aR)—N-(4-fluoro-3-methylphenyl)-7-methyl-2-(oxetane-2-carbonyl)-2,3,3a,4,10,10a-hexahydro-1H,7H-dipyrrolo[3,4-b:3′,4′-f][1,4,5]oxathiazocine-8-carboxamide 5,5-dioxide], the EC50 is reported as < 1000 nM.
`Cc1cc(NC(=O)c2c3c(cn2C)S(=O)(=O)N[C@H]2CN(C(=O)C4(C)CCCO4)C[C@H]2CO3)ccc1F` (stereo partly drawn) [Example E111, (3aR,10aR)—N-(4-fluoro-3-methylphenyl)-7-methyl-2-(2-methyltetrahydrofuran-2-carbonyl)-2,3,3a,4,10,10a-hexahydro-1H,7H-dipyrrolo[3,4-b:3′,4′-f][1,4,5]oxathiazocine-8-carboxamide 5,5-dioxide] was tested, and the EC50 was < 1000 nM.
`Cc1nc(C(=O)N2C[C@H]3COc4c(cn(C)c4C(=O)Nc4ccc(F)c(C)c4)S(=O)(=O)N[C@H]3C2)co1` [Example E112, (3aR,10aR)—N-(4-fluoro-3-methylphenyl)-7-methyl-2-(2-methyloxazole-4-carbonyl)-2,3,3a,4,10,10a-hexahydro-1H,7H-dipyrrolo[3,4-b:3′,4′-f][1,4,5]oxathiazocine-8-carboxamide 5,5-dioxide] was tested, and the EC50 was < 1000 nM.
